# Laboratory results published in US20090227619A1, “Harmine derivatives, intermediates used in their preparations, preparation processes and use therefo” (priority 2003, published 2009).
# Read-outs that look alike come from different tables or passages of the source.
# What was measured:
# [1] = tested on: Kunming mice; details: for Death rate: single i.p.
# Method: (§2) Five grades of dosages for each sample according to the results of the preliminary test, each dosage being 0.8 larger than the previous one
# (§3) During the experiment, each sample was added a small amount of Tween-80 to facilitate dissolution after the sample was weighed, and then 0.5% CMC-Na solution was gradually added to achieve the desired concentration. The experimental volume was 0.5 ml/20 g mouse.
# (§4) Single injection via intraperitoneal (i.p.) to different groups mice.
# (§5) Kunming mice were divided into different groups randomly according to their sex. The medicament was intraperitoneally administered to each group of mice according to the dosage setting. After the administration of the medicaments, mice were observed continuously for the first 2 h for any gross behavioral changes and deaths. Dead animals were dissected and examined for any possible organ damage. […] Conditions of animals died within two week were recorded. After two weeks, all survived animals were sacrificed and checked macroscopically for possible damage to the heart, liver, kidneys and so on. Viscera that had substantive pathological changes were pathologically examined.
# [2] = tested on: Bel-7402; test: In vitro cytotoxicity, IC50 by MTT method, Bel-7402; assay type: cell-based; details: Homo sapiens, Bel-7402; Bel7402 cell strain; read-out: IC50 Bel7402
# Method in brief: (§1)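 MTT viability, 48 h exposure: cells 10^5/ml in RPMI1640 + 10% FBS, 37 °C/5% CO2; MTT 4 h, DMSO solubilisation, A490.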
# [3] = tested on: HepG2; test: In vitro cytotoxicity, IC50 by MTT method, HepG2; assay type: cell-based, human; details: Homo sapiens; HepG2 cell strain; read-out: IC50 HepG2
# Method in brief: as §1
# [4] = tested on: CT-DNA; test: DNA thermal denaturation, determination of ΔTm; assay type: binding; details: 20 uM compound, Tm of CT-DNA alone 61° C.
# Method: Experiments were carried out in PE buffer (1 mM Na2HPO4, 0.1 mM EDTA, pH 7.6) in a thermostatically controlled cell hold, and the quartz cuvette (1 cm path length) was heated by circulating water at a heating rate of 0.5° C./min from 25 to 95° C. Amsacrine and Doxorubicin Hydrochloride were used as standards. In all cases, the concentration of CT-DNA was 15 ug/ml. The ‘melting’ temperature Tm was taken as the mid-point of the hyperchromic transition.
# ΔTm=Tm^drug-DNA complex−Tm^DNA alone
# The ΔTm of each compound was calculated, Experiments were repeated three times, and an average value was calculated.
# [5] = tested on: BGC-823; test: In vitro cytotoxicity, IC50 by MTT method, BGC-823; assay type: cell-based; details: Homo sapiens, BGC-823; BGC823 cell strain; read-out: IC50 BGC823
# Method in brief: as §1
# [6] = tested on: NIH3T3; test: In vitro cytotoxicity, IC50 by MTT method, NIH3T3; assay type: cell-based; details: Mus musculus; NIH3T3 cell strain; read-out: IC50 NIH3T3
# Method in brief: as §1
# [7] = tested on: Lewis lung cancer; details: Lewis lung cancer; for Body weight of the animals, end, First time / Body weight of the animals, end, Second time: ip × 10qd;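 as to all read-outs here: mice implanted subcutaneously in the axilla with Lewis lung tumor cells, treated starting the following day, killed roughly three weeks after implantation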
# [8] = tested on: S180 sarcoma; details: S180 sarcoma; for Body weight of the animals, beginning, First time / Body weight of the animals, end, First time / Inhibition rate, First time / Weight of the tumor X ± SD, First time / Body weight of the animals, beginning, Second time / Body weight of the animals, end, Second time / Inhibition rate, Second time: ip × 10qd
# [9] = tested on: PLA-801; test: In vitro cytotoxicity, IC50 by MTT method, PLA-801; assay type: cell-based; details: PLA-801 cell strain; read-out: IC50 PLA-801
# Method in brief: as §1
# [10] = tested on: Hela; test: In vitro cytotoxicity, IC50 by MTT method, Hela; assay type: cell-based; details: Homo sapiens; Hela cell strain; read-out: IC50 Hela
# Method in brief: as §1
# [11] = tested on: Lovo; test: In vitro cytotoxicity, IC50 by MTT method, Lovo; assay type: cell-based; details: Homo sapiens; Lovo cell strain; read-out: IC50 Lovo
# Method in brief: as §1
# [12] = in vivo; details: both, Kunming, mouse, ip
# Method: as §2, §3, §4, §5
# 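For Death rate in this document: acute toxicity in Kunming mice grouped by sex, one intraperitoneal dose at five graded levels in Tween-80 plus 0.5% CMC-Na, deaths monitored over two weeks.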
# 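For LD50 in this document: acute toxicity in Kunming mice grouped by sex, one intraperitoneal dose at five graded levels in Tween-80 plus 0.5% CMC-Na, deaths monitored over two weeks.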
smiles,measurement,setting,value
"CCOC(=O)c1cc2c3ccccc3n(Cc3ccccc3)c2cn1 [Compound 33, ethyl 9-benzyl-β-carboline-3-carboxylate]",Death rate,"[1]; 50% male 50% female mice, 240 mg/kg",50
same,Death rate,"[1]; 50% male 50% female mice, 300 mg/kg",90
same,Death rate,"[1]; female mice, 240 mg/kg",60
same,Death rate,"[1]; female mice, 300 mg/kg",100
same,Death rate,"[1]; male mice, 240 mg/kg",40
same,Death rate,"[1]; male mice, 300 mg/kg",80
same,LD50,"[1]; mouse, in vivo, ip",211 to 274 mg/kg
same,IC50,[2],340 µM
same,IC50,[3],80 µM
same,ΔTm,"[4]; CT-DNA 15 ug/ml, PE buffer pH 7.6",−1.2 °C
same,ΔTm,[4]; CT-DNA thermal denaturation,−1.2 °C
same,IC50,[5],150 µM
same,IC50,[6],50 µM
same,"Body weight of the animals, end, First time",[7]; Dosage 50 (mg/ml),25.4 g
same,"Body weight of the animals, end, Second time",[7]; Dosage 50 (mg/ml),24.9 g
same,"Body weight of the animals, beginning, First time","[7]; Dosage 50, ip × 10qd",20.3 g
same,"Inhibition rate, First time","[7]; Dosage 50, ip × 10qd",34.16%
same,"Weight of the tumor X ± SD, First time","[7]; Dosage 50, ip × 10qd",1.60 ± 0.09 g
same,"Body weight of the animals, beginning, Second time","[7]; Dosage 50, ip × 10qd",18.9 g
same,"Inhibition rate, Second time","[7]; Dosage 50, ip × 10qd",31.06%
same,"Weight of the tumor X ± SD, Second time","[7]; Dosage 50, ip × 10qd",2.02 ± 0.18 g
same,"Body weight of the animals, end, First time",[7]; Dosage 100 (mg/ml),24.7 g
same,"Body weight of the animals, end, Second time",[7]; Dosage 100 (mg/ml),24.5 g
same,"Body weight of the animals, beginning, First time","[7]; Dosage 100, ip × 10qd",19.9 g
same,"Inhibition rate, First time","[7]; Dosage 100, ip × 10qd",42.80%
same,"Weight of the tumor X ± SD, First time","[7]; Dosage 100, ip × 10qd",1.39 ± 0.15 g
same,"Body weight of the animals, beginning, Second time","[7]; Dosage 100, ip × 10qd",19.0 g
same,"Inhibition rate, Second time","[7]; Dosage 100, ip × 10qd",43.34%
same,"Weight of the tumor X ± SD, Second time","[7]; Dosage 100, ip × 10qd",1.66 ± 0.12 g
same,Inhibition rate (%) Lewis cancer,"[7]; comparison table 43, in vivo",43.3%
same,"Body weight of the animals, beginning, First time",[8]; Dosage 50 (mg/ml),19.4 g
same,"Body weight of the animals, end, First time",[8]; Dosage 50 (mg/ml),24.4 g
same,"Inhibition rate, First time",[8]; Dosage 50 (mg/ml),33.33%
same,"Weight of the tumor X ± SD, First time",[8]; Dosage 50 (mg/ml),1.78 ± 0.17 g
same,"Body weight of the animals, beginning, Second time",[8]; Dosage 50 (mg/ml),18.7 g
same,"Body weight of the animals, end, Second time",[8]; Dosage 50 (mg/ml),25.6 g
same,"Inhibition rate, Second time",[8]; Dosage 50 (mg/ml),32.22%
same,"Weight of the tumor X ± SD, Second time","[8]; Dosage 50, ip × 10qd",1.83 ± 0.19 g
same,"Body weight of the animals, beginning, First time",[8]; Dosage 100 (mg/ml),19.4 g
same,"Body weight of the animals, end, First time",[8]; Dosage 100 (mg/ml),24.6 g
same,"Inhibition rate, First time",[8]; Dosage 100 (mg/ml),42.70%
same,"Weight of the tumor X ± SD, First time",[8]; Dosage 100 (mg/ml),1.53 ± 0.15 g
same,"Body weight of the animals, beginning, Second time",[8]; Dosage 100 (mg/ml),18.6 g
same,"Body weight of the animals, end, Second time",[8]; Dosage 100 (mg/ml),25.1 g
same,"Inhibition rate, Second time",[8]; Dosage 100 (mg/ml),40.00%
same,"Weight of the tumor X ± SD, Second time","[8]; Dosage 100, ip × 10qd",1.62 ± 0.30 g
same,Inhibition rate (%) S180 sarcomata,"[8]; comparison table 43, in vivo",42.11%
same,IC50,[9],170 µM
same,IC50,[10],10 µM
same,IC50,[11],120 µM
same,LD50 at 2 weeks,[12],240 mg/kg
